Data published in patent US20210177941A1, “COMPOSITIONS FOR CHANGING BODY COMPOSITION, METHODS OF USE, AND METHODS OF TREATMENT” (Board of Supervisors of Louisiana State University and …, priority 2014, published 2021).
Ends that are not written are not given here.

Tests used:
[1] = system: myostatin mRNA; assay: myostatin mRNA expression in RMS13 cells; assay type: cell-based, human
Method: (§1) Working in concert with UPS signaling is the myostatin pathway. By binding to ActRIIB, myostatin activates type-1 activin receptor serine kinases, ALK4 or ALK5, which phosphorylate Smads 2 and −3 (key biomarkers) to exert changes in gene transcription (above figure). […] To measure pathways regulating muscle atrophy and protein syntheses, the following key mRNA biomarkers were assayed: 1) Atrophy: MSTN, Atrogin-1, MuRF1, FoxO1, FoxO3, ALK4, Smad 1, Smad 3; 2) Anabolic: IGF1R, PGC1a, PGC1b, mitochondrial-FAM.
(§2) All RMS13 cells were treated for 24 hours with single or combination doses (n=10 each group). […] However, there was a strong trend for down regulation in P/A; […] treated cells for MuRF1 (34±7 vs. 22±5, p=0.068; PBS control vs. P/A; 1 mm/0.25 μm respectively) and Smad3 (91 ±9 vs. 73±9, p=0.055; PBS control vs. P/A; 1 mm/0.25 μm respectively).
Pramlintide is chiefly used as an adjunct […] in type 1 and type 2 diabetes to help manage glycemia. The action of the two hormones complements one another to better control glucose metabolism and energy balance. We investigated whether pramlintide with or without insulin could modulate myostatin (key biomarker) mRNA. […] This negative result provides important rationale for both preclinical and clinical study designs (see below). Amylin is thought to function as a neuroendocrine hormone (Young, 1997) and has been shown over many decades to have an effect of lowering food intake. When given intracerebroventricularly (icv), amyl in reduces food intake and body weight in rodents in a dose-dependent manner (Rushing et al., 2001). […] Amylin is thought to regulate energy balance by inhibiting postprandial glucagon secretion and slowing the rate of nutrient delivery to the small intestine via an effect on gastric emptying. The rate of gastric emptying also plays a major role in blood glucose homeostasis in normal subjects by controlling the delivery of carbohydrate to the small intestine and the regulation of body weight (Reda et al., 2002). It has been proposed that amylin's effect on gastric emptying may be exerted via a central mechanism involving specific binding sites in the area postrema of the brain stem (Cline et al., 2008), and that the effect is mediated by the vagus nerve rather than a direct action on the stomach and digestion (D'Este et al., 1995; Maev and Dicheva, 2003). We have previously shown that the use of modified-pharmaceutical grade cellulose is able to dramatically slow the rate of gastric emptying and improve the lean-to-fat ratio in mice (Islam et al., 2012).
Calcitonin can be used therapeutically for the treatment of hypercalcemia or osteoporosis. Both calcitonin and amylin bind the same trimetric-calcitonin-ramp-receptor. An increased incidence of pituitary adenomas has been reported in rats given synthetic salmon calcitonin for 1 year. Calcitonin may be used diagnostically as a tumor marker for medullary thyroid cancer; also, elevated levels after surgery may indicate recurrence. Calcitonin may even be assayed in biopsy samples from suspicious lesions (e.g., lymph nodes that are swollen) to establish whether they are a metastasis of the original cancer (Bruera and Fainsinger, 1997; Busquets et al., 2012b). We next examined the dose-dependence relationship between the concentration of calcitonin and myostatin mRNA expression.

[2] = In Vivo Study 1: body weight and body composition by NMR, 8 weeks; design: species or system B6 mice; details: for muscle gain and body fat reduction: monotherapy: pramlintide 30 and 60 mg/kg/day, albuterol 24 mg/day
Method: Based on our in vitro experiments, we hypothesized that we could synergize muscle gain and improved biology with a combination of low doses of amylin (or agonist) and albuterol (or agonist). This study determined the effect of daily peripheral administration of pramlintide for 2-months on body weight, body composition and food intake in healthy, elderly mice.
Murine subjects were divided into seven treatment groups (total n=12): Group 1) SC […] vehicle (PBS); Group 2) SC 15 mg/kg/mouse of pramlintide; Group 3) SC 30 mg/kg/mouse of pramlintide; Group 4) SC 60 mg/kg/mouse of pramlintide; […]); Group 6) Albuterol 0.250 mg/kg. […]
The mice were housed in single cages with a 12:12 light cycle, and allowed ad libitum access to food and water throughout the experiment. On day-1 food was weighed and an amount sufficient to last weekly intervals was provided. For the first two-weeks, food intake and body weight were monitored daily and thereafter biweekly for the remainder of the experiment. Body composition by NMR-spectroscopy was the primary endpoint, measured at Day-1 and at the end of the protocol (8-weeks). At Day-5, the mice were randomized to treatment and control groups, such that each group had the same mean body weight. Mice were allowed to acclimate for 5-days to being the sole mouse in the cage. Each day mice were dosed 1 hour after lights on, and the 2nd dosing two hours prior to lights out when mice initiate feeding. Pramlintide was taken directly from the FDA-approved Symlin drug (pramlintide acetate) obtained through the Pennington Biomedical Research Center (PBRC) pharmacy. Final injection volumes were […] for vehicle or drugs. Symlin was supplied as a sterile drug at 0.6 mg/ml. All doses were adjusted according to this concentration.
Food intake in grams was measured manually each 24 hours. Body Composition was determined via NMR using a Bruker mini-spec system designed for rat or mouse. Animals were transported in microisolater covered cages to the designated room containing the NMR. […]

[3] = system: PGC1a mRNA; assay: PGC1a mRNA expression in RMS13 cells; assay type: cell-based, human; details: 24 h; pramlintide 1 mm, albuterol 0.25 mm, P/A 1 mm/0.25 μm
Method: as §1, §2

[4] = system: FoxO3 mRNA; assay: FoxO3 mRNA expression in RMS13 cells; assay type: cell-based, human; details: 24 h; pramlintide 1 mm, albuterol 0.25 mm, P/A 1 mm/0.25 μm
Method: as §1, §2

[5] = 7-week placebo controlled study in young, healthy BL-male mice; assay type: in vivo; details: for lean body mass (LBM): all treatment-arms (Gr 2-7); for bodyweight from baseline and relative to placebo control: pramlintide 30 and 60 mg/kg (Gr 3, 4), Salbutamol 24 mg (Gr 5), combinations (Gr 6, 7)
Method: In a recent pharmacology assessment in young, healthy BL-male mice, we completed a 7-week placebo controlled (Gr 1) study with treatment-arms that included the use of pramlintide alone at low (Gr 2. 15 mg/kg); mid (Gr 3. 30 mg/kg) and high (Gr 4. 60 mg/kg) or Salbutamol alone (Gr 5. 24 mg) or combined with Pramlintide (Gr 6. 15 mg/kg +12 mg of Salbutamol; Gr 7. 30 mg/kg +12 mg of Salbutamol).

[6] = system: myostatin secretion; assay: myostatin secretion into RMS13 myoblast culture media; assay type: cell-based, human; details: pramlintide 1 mm (p=0.061); P/A 1 mm/0.25 mm (p<0.05, greatest suppression)
Description: Myostatin's main sites of actions are muscle and bone in a catabolic fashion. Both IGF1 and amylin have roles in regulating osteoblast-bone proliferation (Cornish et al., 2004; Cornish and Naot, 2002) and muscle mass. […] Although not intending to be bound by theory, we hypothesize that amylin alone and in combination with albuterol is able to directly suppress myostatin secretion in myoblasts.

[7] = system: mammalian target of rapamycin (mTOR); assay: mTOR activation in human myoblast RMS13 cells; assay type: cell-based; details: pramlintide alone at 1 and 5 mm, 24 h, both p<0.05
Description: We first examined the association between a pramlintide and albuterol formulation (single and combination dosing) on the activity of the mammalian target of rapamycin (mTOR) in a human myoblast cell model derived from RMS13 cells (purchased from ATCC, Manassas, Va., USA). mTOR is a highly conserved kinase that exists in two functional complexes, TOR complex 1 (TORC1) and TOR complex 2 (TORC2), that are conserved from yeast to mammals. Given its high conservation across species, mTOR serves as a key biomarker for protein synthesis. mTOR (TORC1 and TORC 2) is a master kinase that is crucial for cell growth and is a chief enzyme in protein synthesis (Otulakowski et al., 2007). Determining optimal ratios and concentrations of each drug (in single or combination) was an important first step to guide the mechanism of action biomarker studies. This initial study was undertaken for 24 and 48 hours; only the 24-hour results are shown (n=6 each group).

[8] = system: Atrogin-1, MuRF1, FoxO1, ALK4, Smad 1, Smad 3, PGC1b and TFAM mRNA; assay: myoblast transcriptome biomarker panel in RMS13 cells; assay type: cell-based, human; details: 24 h; albuterol 0.25 mm, pramlintide 1 mm, P/A 1 mm/0.25 μm
Method: as §1, §2

[9] = system: IGF1R mRNA; assay: IGF1R mRNA expression in RMS13 cells; assay type: cell-based, human; details: 24 h; pramlintide 1 mm, albuterol 0.25 mm, P/A 1 mm/0.25 μm
Method: as §1, §2

[10] = in vivo; cited from earlier work
[11] = system: human myoblast; assay: human myoblast treated 24 h with pramlintide, biomarkers; assay type: cell-based; details: 24 h pramlintide
Description: Although not intending to be bound by theory, we hypothesize the amylin pathway has a role in the regulation of muscle mass in mammals and the use of pramlintide will result in improved body composition and increase muscle mass in healthy humans by lowering the production of myostatin and increasing protein synthesis via mTOR activation.

[12] = 24 h, pramlintide 1 mm, albuterol 0.25 mm, P/A 1 mm/0.25 μm
[13] = calcitonin dose-dependence, pramlintide 5 mm, p<0.05

Compound | myostatin mRNA expression [1, 12] | myostatin mRNA expression [1, 13] | muscle gain and body fat reduction [2] | drop in body weight within the first week ([2]; pramlintide 60 mg/kg/day (Group 4)) | PGC1a mRNA expression [3] | FoxO3 mRNA expression [4] | lean body mass (LBM) [5] | bodyweight from baseline and relative to placebo control [5] | myostatin secretion into myoblast culture media [6] | mTOR activation [7] | Atrogin-1, MuRF1, FoxO1, ALK4, Smad 1, Smad 3, PGC1b and TFAM mRNA [8] | IGF1R mRNA expression [9] | T-1/2-life [10] | myostatin and FoxO-1/-3 mRNA [11] | pro-anabolic targets (PGC1a, calcineurin mRNA and AkT and mTOR-activity) [11] | myostatin mRNA, pramlintide with or without insulin ([1]; co-incubation of insulin with pramlintide)
pramlintide acetate | significantly lowered | able to lower myostatin mRNA | Statistical improvements in muscle gain and body fat reduction | −5% | up regulated | significantly lowered | significantly increased | significant increases in bodyweight | lowered myostatin secretion | induced mTOR activation | no change | up regulated | ~45 min | down regulation of myostatin | elevation of pro-anabolic targets | 
insulin |  |  |  |  |  |  |  |  |  |  |  |  |  |  |  | no additive benefit
calcitonin (CGNLSTCMLGTYTQDFNKFHTFPQTAIGVGAP; ends and bridges not checked; cysteine pairing not given here; UniProt P01258 85-116, looked up) |  | did not modulate myostatin mRNA |  |  |  |  |  |  |  |  |  |  |  |  |  | 
CC(C)(C)NCC(O)c1ccc(O)c(CO)c1 (stereo not shown) [albuterol] | no effect |  | Statistical improvements in muscle gain and body fat reduction |  | up regulated | down regulated | significantly increased | significant increases in bodyweight |  |  | no change | up regulated |  |  |  | 
